Calls of active or inactive are those of the source.
Legend:
Cytochrome P450 1A2 = target: T1, Cytochrome P450 1A2 (Homo sapiens, UniProt P05177);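 note: PubChem cytochrome P450 panel assay, CYP1A2 panel member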
T1 sequence (P05177 whole entry): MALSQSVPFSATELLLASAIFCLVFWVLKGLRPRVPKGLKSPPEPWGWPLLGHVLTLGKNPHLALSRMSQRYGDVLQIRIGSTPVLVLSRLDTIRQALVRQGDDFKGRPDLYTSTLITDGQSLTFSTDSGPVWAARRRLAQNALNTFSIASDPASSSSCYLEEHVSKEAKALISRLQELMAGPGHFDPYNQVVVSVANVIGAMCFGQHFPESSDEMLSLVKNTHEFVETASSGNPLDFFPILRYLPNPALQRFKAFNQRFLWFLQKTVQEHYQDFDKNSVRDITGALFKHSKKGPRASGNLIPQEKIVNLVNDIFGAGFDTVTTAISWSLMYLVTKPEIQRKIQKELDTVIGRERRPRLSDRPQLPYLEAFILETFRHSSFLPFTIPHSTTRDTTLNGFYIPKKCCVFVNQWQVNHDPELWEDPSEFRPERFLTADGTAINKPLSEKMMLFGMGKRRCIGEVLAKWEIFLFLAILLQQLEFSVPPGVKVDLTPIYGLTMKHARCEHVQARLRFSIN

Cytochrome P450 2C9 [1] = target: T2, Cytochrome P450 2C9 (Homo sapiens, UniProt P11712)
T2 sequence (P11712 whole entry): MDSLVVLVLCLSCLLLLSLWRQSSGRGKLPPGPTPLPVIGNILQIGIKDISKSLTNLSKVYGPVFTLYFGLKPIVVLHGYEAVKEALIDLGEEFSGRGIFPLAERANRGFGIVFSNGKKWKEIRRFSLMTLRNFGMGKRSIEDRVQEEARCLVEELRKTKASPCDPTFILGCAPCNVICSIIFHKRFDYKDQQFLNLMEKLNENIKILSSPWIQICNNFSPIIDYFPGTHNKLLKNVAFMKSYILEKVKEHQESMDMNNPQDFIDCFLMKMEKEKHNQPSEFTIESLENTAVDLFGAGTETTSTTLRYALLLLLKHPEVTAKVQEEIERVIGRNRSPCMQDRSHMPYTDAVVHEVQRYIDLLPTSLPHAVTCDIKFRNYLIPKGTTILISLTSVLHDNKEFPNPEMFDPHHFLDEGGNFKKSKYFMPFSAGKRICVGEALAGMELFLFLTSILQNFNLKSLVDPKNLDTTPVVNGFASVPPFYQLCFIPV

Cytochrome P450 2D6 = Cytochrome P450 2D6 (Homo sapiens, UniProt P10635);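 note: CYP2D6 member of a cytochrome P450 panel assay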
[2] = target: T3, Nuclear receptor subfamily 0 group B member 1 (Homo sapiens, UniProt P51843); test: Luminescence-based cell-based high throughput dose response assay for inhibitors of the orphan nuclear receptor subfamily 0, group B, member 1 (DAX1; NR0B1). [Related pubchem assays (depositor defined):AID504766, AID504790]; assay type: functional
T3 sequence (P51843 whole entry): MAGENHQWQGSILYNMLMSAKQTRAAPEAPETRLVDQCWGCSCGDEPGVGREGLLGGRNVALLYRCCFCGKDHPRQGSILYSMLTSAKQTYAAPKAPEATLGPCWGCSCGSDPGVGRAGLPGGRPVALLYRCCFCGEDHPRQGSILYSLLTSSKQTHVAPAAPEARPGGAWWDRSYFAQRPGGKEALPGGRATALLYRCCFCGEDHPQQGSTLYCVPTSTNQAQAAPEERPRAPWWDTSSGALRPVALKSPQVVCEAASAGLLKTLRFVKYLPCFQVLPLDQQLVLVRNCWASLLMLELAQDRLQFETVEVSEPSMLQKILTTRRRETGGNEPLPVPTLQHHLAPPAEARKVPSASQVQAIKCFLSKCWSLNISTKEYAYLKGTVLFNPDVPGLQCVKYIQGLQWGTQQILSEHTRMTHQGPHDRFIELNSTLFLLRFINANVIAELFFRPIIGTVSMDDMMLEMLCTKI

HEK293 [3] = test: cells; assay type: functional, cell-based; conditions: Homo sapiens
A-375 [4] = test: MITF: Counter assay: A375 proliferation Measured in Cell-Based System Using Plate Reader - 2084-03_Inhibitor_Dose_DryPowder_Activity. [Related pubchem assays (depositor defined):AID488944]; assay type: functional; conditions: Homo sapiens
A-375 [5] = test: proliferation inhibition in MITF-low A375 cells – cell-based, cherry-pick samples, set 2, counter-screen for MITF modulator project, dose response (AID 540335); assay type: functional; conditions: Homo sapiens
[6] = target: Beta-2 adrenergic receptor (Homo sapiens, UniProt P07550); test: ADRB2 activation measured by internalization – cell-based, FAP fluorogen, flow cytometry, cherry pick 1, dose response (AID 588763); assay type: functional
Sequence of Beta-2 adrenergic receptor (P07550 whole entry): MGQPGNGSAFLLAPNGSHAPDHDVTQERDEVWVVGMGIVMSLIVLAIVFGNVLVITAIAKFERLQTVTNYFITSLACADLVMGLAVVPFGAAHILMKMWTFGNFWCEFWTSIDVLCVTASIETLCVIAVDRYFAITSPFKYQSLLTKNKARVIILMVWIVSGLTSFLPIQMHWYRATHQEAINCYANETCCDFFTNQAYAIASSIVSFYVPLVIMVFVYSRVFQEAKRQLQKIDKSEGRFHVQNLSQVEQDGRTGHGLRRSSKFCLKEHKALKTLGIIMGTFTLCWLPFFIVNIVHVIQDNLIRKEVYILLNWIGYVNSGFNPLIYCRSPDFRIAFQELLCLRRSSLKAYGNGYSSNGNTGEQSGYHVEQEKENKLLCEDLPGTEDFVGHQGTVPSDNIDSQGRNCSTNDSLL

Cytochrome P450 2C19 = Cytochrome P450 2C19 (Homo sapiens, UniProt P33261); test: Cytochrome panel assay with activity outcomes. Panel member name: p450-cyp2c19 Compounds with AC50 equal or less than 10 uM are considered active; assay type: functional
Sequence of Cytochrome P450 2C19 (P33261 whole entry): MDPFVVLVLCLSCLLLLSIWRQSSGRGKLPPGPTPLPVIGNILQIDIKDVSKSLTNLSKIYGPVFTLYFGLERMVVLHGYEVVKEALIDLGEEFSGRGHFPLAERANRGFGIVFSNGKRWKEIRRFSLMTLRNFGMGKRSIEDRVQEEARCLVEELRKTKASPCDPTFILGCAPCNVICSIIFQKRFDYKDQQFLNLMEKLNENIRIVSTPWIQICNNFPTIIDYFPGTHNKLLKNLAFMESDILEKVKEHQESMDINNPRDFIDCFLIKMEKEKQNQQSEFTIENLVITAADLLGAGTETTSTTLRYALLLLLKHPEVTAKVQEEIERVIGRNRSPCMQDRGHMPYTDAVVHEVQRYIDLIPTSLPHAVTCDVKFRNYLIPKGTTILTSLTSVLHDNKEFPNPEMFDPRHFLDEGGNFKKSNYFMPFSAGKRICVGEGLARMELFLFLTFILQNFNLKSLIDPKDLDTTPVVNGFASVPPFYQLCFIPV

[7] = target: T4, Microphthalmia-associated transcription factor (Homo sapiens, UniProt O75030); test: reducers of TRPM1 reporter luminescence, concentration series – cell-based, SK-MEL-5, cherry-picked, set 3, MITF inhibitor project, dose response (AID 493073); assay type: functional;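 note: SK-MEL-5 melanoma cells with luciferase driven by the MITF target TRPM1 promoter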
T4 sequence (O75030 whole entry): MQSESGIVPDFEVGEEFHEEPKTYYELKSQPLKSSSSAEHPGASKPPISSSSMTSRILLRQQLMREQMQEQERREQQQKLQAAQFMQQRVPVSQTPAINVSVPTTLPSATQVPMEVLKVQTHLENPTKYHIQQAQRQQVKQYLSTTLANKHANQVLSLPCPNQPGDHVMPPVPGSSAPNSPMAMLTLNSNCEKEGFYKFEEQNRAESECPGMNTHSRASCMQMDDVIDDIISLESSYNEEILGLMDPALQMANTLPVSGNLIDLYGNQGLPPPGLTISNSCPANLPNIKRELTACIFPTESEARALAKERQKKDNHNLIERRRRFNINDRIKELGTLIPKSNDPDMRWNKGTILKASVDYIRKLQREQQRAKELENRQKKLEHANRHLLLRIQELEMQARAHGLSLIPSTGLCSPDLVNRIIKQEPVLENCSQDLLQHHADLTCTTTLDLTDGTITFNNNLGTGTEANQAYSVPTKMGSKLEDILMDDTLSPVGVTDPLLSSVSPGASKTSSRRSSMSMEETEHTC

[8] = NIH3T3 cell viability loss – ATP luminescence, mouse fibroblasts, counter-screen, dose response (AID 2010); assay type: functional, cell-based;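 note: cells exposed to compound for about 90 hours before reading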
[9] = Trypanosoma cruzi growth suppression in host cells – NIH3T3 host cells, beta-gal luminescence, confirmation (AID 2044); assay type: functional, cell-based;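 note: intracellular parasites grown in NIH/3T3 mouse fibroblasts as host cells; luminescent beta-galactosidase reporter signal from transgenic T. cruzi replicating inside host cells; inhibitors lower the luminescence signal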
Beta-galactosidase [10] = target: T5, Beta-galactosidase (Escherichia coli, UniProt Q8VNN2); test: detection-enzyme interference by beta-gal modulators – biochemical, E. coli enzyme, set 3, artefact control for CCR6 antagonist project, dose response (AID 504712); assay type: functional
SUMO E1/E2 = SUMO E1/E2 (Homo sapiens, UniProt P63279+Q9UBE0+Q9UBT2); test: SAR analysis of SUMOylation using HTRF in an in-Vitro dose response assay. [Related pubchem assays (depositor defined):AID2006, AID2011, AID2018, AID2069, AID2658]; assay type: functional
[11] = target: Glyceraldehyde-3-phosphate dehydrogenase (Homo sapiens, UniProt P04406)
[12] = MIN6 cell viability loss – mouse insulinoma, cytotoxicity control, dose response (AID 2122); assay type: functional;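 note: confirmatory high-throughput counterscreen run to flag cytotoxic compounds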
[13] = decrease of insulin promoter-GFP reporter – imaging, high-content screening, mouse beta cells (AID 1628); assay type: functional; conditions: MIN6
[14] = target: T6, Delta-type opioid receptor (Homo sapiens, UniProt P41143); test: HTS Image-Based Screen for Antagonists of the DOR Receptor. [Related pubchem assays (depositor defined):AID1777, AID1785, AID1786, AID2133]; assay type: functional
T6 sequence (P41143 whole entry): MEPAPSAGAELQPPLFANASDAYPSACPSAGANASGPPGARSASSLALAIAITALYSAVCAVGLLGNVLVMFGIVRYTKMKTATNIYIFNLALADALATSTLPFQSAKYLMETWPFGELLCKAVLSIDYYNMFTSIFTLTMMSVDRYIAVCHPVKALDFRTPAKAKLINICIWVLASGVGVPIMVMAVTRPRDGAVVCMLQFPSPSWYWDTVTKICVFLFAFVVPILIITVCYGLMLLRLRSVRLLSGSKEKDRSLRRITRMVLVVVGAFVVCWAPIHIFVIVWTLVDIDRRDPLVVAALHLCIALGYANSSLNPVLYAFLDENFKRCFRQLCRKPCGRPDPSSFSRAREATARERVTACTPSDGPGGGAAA

Beta-galactosidase [15] = target: T5, Beta-galactosidase; assay type: functional
Mu-type opioid receptor = Mu-type opioid receptor (Homo sapiens, UniProt P35372); test: HTS Image-Based Screen for Agonists of the MOR Receptor. [Related pubchem assays (depositor defined):AID1777, AID1785, AID1786, AID2133]; assay type: functional;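 note: imaging of beta-arrestin GFP recruitment into spots after receptor activation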
[16] = target: T7, Kappa-type opioid receptor (Homo sapiens, UniProt P41145); assay type: functional
[17] = target: T7, Kappa-type opioid receptor; assay type: functional; remark: listed apart in the source
[18] = target: T6, Delta-type opioid receptor; test: HTS Image-Based Screen for Agonists of the DOR Receptor. [Related pubchem assays (depositor defined):AID1777, AID1786, AID2133]; assay type: functional
Jurkat = test: SAR Analysis of small molecule inhibitors of T-cell specific antigen receptor-induced NF-kB activation in a Jurkat cell line using a luminescence assay - Set 2. [Related pubchem assays (depositor defined):AID435003, AID435012, AID465]; assay type: functional, cell-based; conditions: Homo sapiens
HEK293 [19] = test: SAR Analysis of small molecule inhibitors of T-cell specific antigen receptor-induced NF-kB activation in a HEK-293T cell line using a luminescence assay - Set 2. [Related pubchem assays (depositor defined):AID435003, AID435012, AID489026]; assay type: functional, cell-based; conditions: Homo sapiens
HEK293 [20] = test: HEK293T cell viability loss, resazurin readout – resazurin fluorescence, cytotoxicity control for NF-kB activator project, SAR follow-up (AID 493251); assay type: functional, cell-based; conditions: Homo sapiens
Cytochrome P450 2C9 [21] = target: T2, Cytochrome P450 2C9; remark: listed apart in the source
[22] = HEK-293T cell viability reduction – luminescence, B-cell screen hits, cytotoxicity control for BCR NF-kB inhibitor project, dose response (AID 489021); assay type: functional, cell-based;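 note: HEK-293T cells carrying an NF-kB luciferase reporter; cells exposed to compound for about 14 hours before viability readout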
[23] = NIH-3T3 fibroblast cytotoxicity, dose response, cytotoxicity control, cell-based, fluorescence, Alamar Blue, secondary assay (AID 2327); assay type: functional;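 note: NIH-3T3 mouse fibroblasts cultured with fluconazole at 8 µg/mL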
Nonstructural protein 1 = Nonstructural protein 1 (Influenza A virus, UniProt Q194T2); assay type: functional, Influenza A virus (A/California/07/2009(H1N1))
[24] = target: Lysine-specific demethylase 4C (Homo sapiens, UniProt Q9H3R0); test: inhibition of JMJD2C H3K9me3 demethylation – biochemical, DELFIA europium, cherry-picked samples, dose response (AID 488835); assay type: functional
[25] = target: T8, Mannose-6-phosphate isomerase (Homo sapiens, UniProt P34949); test: phosphomannose isomerase inhibition – biochemical, fluorescence intensity, confirmation (AID 1535)
T8 sequence (P34949 whole entry): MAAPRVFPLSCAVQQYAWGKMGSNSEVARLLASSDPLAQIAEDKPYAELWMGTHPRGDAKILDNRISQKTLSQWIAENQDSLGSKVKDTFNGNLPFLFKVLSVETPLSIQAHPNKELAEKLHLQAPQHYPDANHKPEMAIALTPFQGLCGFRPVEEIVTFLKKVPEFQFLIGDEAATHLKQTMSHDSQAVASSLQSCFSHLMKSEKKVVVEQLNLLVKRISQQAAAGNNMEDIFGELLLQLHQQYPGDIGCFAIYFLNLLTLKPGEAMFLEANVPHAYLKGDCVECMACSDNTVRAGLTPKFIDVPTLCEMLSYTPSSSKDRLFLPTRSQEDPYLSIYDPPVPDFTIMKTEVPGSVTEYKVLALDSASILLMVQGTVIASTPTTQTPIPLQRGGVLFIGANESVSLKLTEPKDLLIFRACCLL

Phosphomannomutase 2 = Phosphomannomutase 2 (Homo sapiens, UniProt O15305); test: Counter screen SAR assay for PMM2 inhibitors via a fluorescence intensity assay. [Related pubchem assays (depositor defined):AID1545, AID1574]
[26] = target: T9, Voltage-gated N-type calcium channel alpha-1B subunit/Amyloid beta A4 precursor protein-binding family A member 1 (Homo sapiens, UniProt Q00975+Q02410); test: disruptors of Mint-PDZ/N-type channel peptide interaction – biochemical, HTRF, set 2, SAR follow-up (AID 434980); assay type: functional
T9 sequence (Q00975 whole entry): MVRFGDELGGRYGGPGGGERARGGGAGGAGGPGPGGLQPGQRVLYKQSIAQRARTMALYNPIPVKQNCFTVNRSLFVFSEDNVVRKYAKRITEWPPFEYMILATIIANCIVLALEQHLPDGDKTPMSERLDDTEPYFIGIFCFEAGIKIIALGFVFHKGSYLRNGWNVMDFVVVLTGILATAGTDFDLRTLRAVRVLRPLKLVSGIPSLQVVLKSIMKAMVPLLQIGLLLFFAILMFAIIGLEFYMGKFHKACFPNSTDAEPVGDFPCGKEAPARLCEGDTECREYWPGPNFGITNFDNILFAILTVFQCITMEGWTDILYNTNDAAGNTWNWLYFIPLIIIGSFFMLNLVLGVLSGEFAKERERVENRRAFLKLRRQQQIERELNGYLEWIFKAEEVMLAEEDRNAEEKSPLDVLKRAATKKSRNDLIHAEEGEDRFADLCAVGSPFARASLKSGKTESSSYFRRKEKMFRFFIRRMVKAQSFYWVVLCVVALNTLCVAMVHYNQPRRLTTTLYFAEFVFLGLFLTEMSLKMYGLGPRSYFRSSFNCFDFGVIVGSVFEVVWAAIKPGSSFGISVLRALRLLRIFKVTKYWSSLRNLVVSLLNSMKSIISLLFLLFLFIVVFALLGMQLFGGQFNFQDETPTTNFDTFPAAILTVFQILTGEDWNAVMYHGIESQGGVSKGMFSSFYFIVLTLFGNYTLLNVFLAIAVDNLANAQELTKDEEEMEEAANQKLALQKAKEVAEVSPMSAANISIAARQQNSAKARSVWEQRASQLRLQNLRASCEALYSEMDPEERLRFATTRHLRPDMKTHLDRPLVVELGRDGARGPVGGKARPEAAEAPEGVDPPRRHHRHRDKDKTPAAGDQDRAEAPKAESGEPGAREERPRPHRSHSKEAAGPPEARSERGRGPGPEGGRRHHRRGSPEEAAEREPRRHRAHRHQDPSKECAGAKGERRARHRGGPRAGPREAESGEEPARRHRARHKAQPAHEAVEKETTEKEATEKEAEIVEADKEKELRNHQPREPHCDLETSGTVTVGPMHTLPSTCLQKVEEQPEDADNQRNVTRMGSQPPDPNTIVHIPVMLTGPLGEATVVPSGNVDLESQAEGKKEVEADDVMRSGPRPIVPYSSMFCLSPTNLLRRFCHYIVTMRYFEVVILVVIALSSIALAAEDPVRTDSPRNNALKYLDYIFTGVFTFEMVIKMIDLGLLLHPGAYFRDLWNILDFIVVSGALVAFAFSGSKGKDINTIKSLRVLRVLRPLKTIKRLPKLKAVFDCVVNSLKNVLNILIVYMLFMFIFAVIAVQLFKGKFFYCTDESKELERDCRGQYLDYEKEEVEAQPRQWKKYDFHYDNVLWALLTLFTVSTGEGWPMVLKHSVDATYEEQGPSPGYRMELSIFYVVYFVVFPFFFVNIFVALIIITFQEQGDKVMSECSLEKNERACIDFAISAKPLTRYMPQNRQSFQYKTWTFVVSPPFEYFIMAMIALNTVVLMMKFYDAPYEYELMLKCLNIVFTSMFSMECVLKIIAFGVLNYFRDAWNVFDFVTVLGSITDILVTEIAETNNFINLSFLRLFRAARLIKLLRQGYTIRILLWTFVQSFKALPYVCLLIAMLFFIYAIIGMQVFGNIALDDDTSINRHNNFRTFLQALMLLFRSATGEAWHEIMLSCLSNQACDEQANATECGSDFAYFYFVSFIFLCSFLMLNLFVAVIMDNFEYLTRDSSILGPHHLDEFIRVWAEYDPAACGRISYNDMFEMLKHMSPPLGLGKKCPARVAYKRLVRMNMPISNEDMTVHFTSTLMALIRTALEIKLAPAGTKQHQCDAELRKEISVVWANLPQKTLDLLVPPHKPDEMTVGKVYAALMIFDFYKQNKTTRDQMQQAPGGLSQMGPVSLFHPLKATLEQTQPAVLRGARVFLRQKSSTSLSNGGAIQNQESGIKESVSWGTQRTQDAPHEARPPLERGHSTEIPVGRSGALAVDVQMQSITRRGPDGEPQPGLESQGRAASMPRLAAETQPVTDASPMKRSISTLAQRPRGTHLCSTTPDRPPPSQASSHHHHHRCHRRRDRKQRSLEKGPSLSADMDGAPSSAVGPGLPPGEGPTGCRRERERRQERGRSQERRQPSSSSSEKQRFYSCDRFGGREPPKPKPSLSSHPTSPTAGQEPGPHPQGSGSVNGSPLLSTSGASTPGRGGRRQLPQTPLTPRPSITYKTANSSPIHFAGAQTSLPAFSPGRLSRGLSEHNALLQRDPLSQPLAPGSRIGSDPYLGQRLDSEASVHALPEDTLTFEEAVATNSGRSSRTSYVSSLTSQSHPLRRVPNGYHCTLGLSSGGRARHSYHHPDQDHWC
T9 sequence (Q02410 whole entry): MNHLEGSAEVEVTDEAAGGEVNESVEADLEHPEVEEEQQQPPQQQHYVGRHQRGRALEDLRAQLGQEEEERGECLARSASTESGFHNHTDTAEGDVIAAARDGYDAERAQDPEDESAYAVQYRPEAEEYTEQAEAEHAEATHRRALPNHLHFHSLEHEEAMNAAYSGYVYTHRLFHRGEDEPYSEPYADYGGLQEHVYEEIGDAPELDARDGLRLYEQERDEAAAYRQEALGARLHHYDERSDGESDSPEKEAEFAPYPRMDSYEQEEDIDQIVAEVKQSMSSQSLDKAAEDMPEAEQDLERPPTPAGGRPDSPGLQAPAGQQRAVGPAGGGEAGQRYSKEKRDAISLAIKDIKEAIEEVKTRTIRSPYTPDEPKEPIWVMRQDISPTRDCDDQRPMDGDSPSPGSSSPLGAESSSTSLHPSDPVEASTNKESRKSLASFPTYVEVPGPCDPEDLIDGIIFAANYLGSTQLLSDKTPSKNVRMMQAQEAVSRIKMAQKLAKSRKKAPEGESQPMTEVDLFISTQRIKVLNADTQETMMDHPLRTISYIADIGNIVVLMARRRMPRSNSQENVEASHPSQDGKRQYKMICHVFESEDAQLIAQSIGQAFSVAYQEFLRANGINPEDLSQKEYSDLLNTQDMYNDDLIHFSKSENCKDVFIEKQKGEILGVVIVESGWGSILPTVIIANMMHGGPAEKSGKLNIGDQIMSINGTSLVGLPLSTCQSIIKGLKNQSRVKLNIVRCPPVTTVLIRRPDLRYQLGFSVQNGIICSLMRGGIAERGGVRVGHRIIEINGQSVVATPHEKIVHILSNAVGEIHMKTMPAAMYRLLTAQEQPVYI

[27] = target: T9, Voltage-gated N-type calcium channel alpha-1B subunit/Amyloid beta A4 precursor protein-binding family A member 1; test: disruptors of Mint-PDZ/N-type channel peptide interaction – biochemical, HTRF, SAR follow-up (AID 2489); assay type: functional

COC(=O)N1CCC[C@@]2(CCN(c3ccncc3)C2)C1
AC50 (Cytochrome P450 1A2): inconclusive
AC50 (Cytochrome P450 2C9 [1]): inconclusive
AC50 (Cytochrome P450 2D6): inconclusive

CN1C(C(=O)Nc2cccc(O)c2)=CC(c2ccco2)=NS1(=O)=O
IC50 [2]: > 67.6 µM (inactive)
IC50 (HEK293 [3]): > 67.6 µM (inactive)

O=C(Nc1ccc(-c2cn3c(n2)SCC3)cc1)c1ccco1
AC50 (A-375 [4]): > 35 µM (active)
AC50 (A-375 [5]): > 35 µM (active)

CCOc1ccc(CNC(=O)c2ccc(NC(=O)C3=CSCCO3)cc2)cc1
EC50 [6]: 0.0608 µM (active)

CS(=O)(=O)N1CCC2(CCN(c3cccc(-c4ccccc4)c3)CC2)CC1
AC50 (Cytochrome P450 1A2): inconclusive
AC50 (Cytochrome P450 2C9 [1]): inconclusive
AC50 (Cytochrome P450 2C19): inconclusive

CS(=O)(=O)c1ccc([S+]([O-])CC(=O)OCc2ccccc2)c([N+](=O)[O-])c1 (stereo not drawn)
AC50 [7]: 5.46 µM (active)
EC50 [8]: 2.01 µM (active)
EC50 [9]: 3.05 µM (active)
AC50 (A-375 [5]): 21 µM (active)
IC50 (Beta-galactosidase [10]): > 66.6 µM (inactive)

NS(=O)(=O)c1ccc2c(c1)C1C=CCC1C(c1ccc([N+](=O)[O-])cc1)N2 (stereo not drawn)
IC50 (SUMO E1/E2): > 100 µM (inactive)
IC50 [11]: > 100 µM (not active)

Cn1c2c(c(=O)[nH]c1=O)C(c1cccc(O)c1)C1=C(O)c3ccccc3C1=N2 (stereo not drawn)
IC50 [12]: 1.92 µM (active)
IC50 [13]: 1.87 µM (active)

CCN(CCCNC(=O)C1CCN(S(=O)(=O)N2CCC3(CC2)OCCO3)CC1)c1ccccc1
IC50 [14]: > 32 µM (inactive)
EC50 (Beta-galactosidase [15]): > 31.5 µM (inactive)
EC50 (Mu-type opioid receptor): > 32 µM (inactive)
IC50 [16]: 9.46 µM (active)
IC50 [17]: 9.69 µM
EC50 [18]: > 32 µM (inactive)

CC(=O)c1c(C)[nH]c(C(=O)Nc2ccc(Cl)c(S(=O)(=O)N(C)C)c2)c1C
IC50 [2]: > 67.5 µM (inactive)
IC50 (HEK293 [3]): > 67.5 µM (inactive)

CNC(=O)CCc1nc(-c2ccc(C(C)(C)C)cc2)no1
IC50 (Jurkat): > 79 µM (inactive)
IC50 (HEK293 [19]): 53.1 µM (inactive)
IC50 (HEK293 [20]): > 80 µM (inactive)
AC50 (Cytochrome P450 2C19; read-out: AC50): 39.8 µM (inconclusive)
AC50 (Cytochrome P450 2C9 [21]): 0.355 µM (inconclusive)
IC50 [22]: > 80 µM (inactive)

Cc1ccc(O)c(NN=C2C(=O)CC(C)(C)CC2=O)c1
EC50 [23]: > 160 µM (inactive)
IC50 (Nonstructural protein 1): 13.2 µM (active)
AC50 [24]: 10.5 µM (active)

O=[N+]([O-])c1ccc(/N=c2/ssnc2Cl)c([N+](=O)[O-])c1
IC50 [25]: 3.52 µM (active)
IC50 (Phosphomannomutase 2): 58.4 µM (active)

COc1ccccc1COC(=O)COC(=O)c1cc(-c2ccco2)nc2ccccc12
IC50 (SUMO E1/E2): 12.9 µM (active)
IC50 [26]: 6.59 µM (active)
IC50 [27]: 9.09 µM (active)

C=CCc1ccc(OCCOc2ccc(/C=N/n3cnnc3)cc2OCC)c(OC)c1
EC50 [6]: 0.587 µM (active)

From ChEMBL document CHEMBL1201862, “PubChem BioAssay data set” (2004)
